Measurements as given in PMC5735336, “Microwave-assisted synthesis and antitumor evaluation of a new series of thiazolylcoumarin derivatives” (EXCLI Journal, 2017).

Experiments:
[1] = system: cervical (Hela) cancer cell line; assay: In vitro antitumor screening, MTT assay, Hela; format: cell-based; settings: Homo sapiens, 50% inhibition of cell viability
Method: (§1) The new analogs were tested for in vitro antitumor efficacy adopting the reported procedure (Mosmann, 1983[46]; Denizot and Lang, 1986[13]; Gerlier and Thomasset, 1986[21]).
(§2) In vitro antitumor screening of compounds 5a-t was carried out on cervical (Hela) and kidney fibroblast (COS-7) cancer cell lines in accord to MTT assay (Mosmann, 1983[46]; Denizot and Lang, 1986[13]; Gerlier and Thomasset, 1986[21]) and utilizing doxorubicin as a standard drug. The concentrations of the compounds that cause 50% inhibition of cell viability (IC50, µM) were calculated. […]
(§3) In vitro antitumor screening
(§4) Compounds 5a-t were screened for in vitro antitumor activity against HepG2 (liver), HCT-116 (colon) and MCF-7 (breast) cancer cell lines adopting MTT assa y (Mosmann, 1983; Denizot and Lang, 1986; Gerlier and Thomasset, 1986) and usin g 5- fluorouracil as a reference antitumor agent. Cells were cultured in Roswell Park Memorial Institute (RPM I) 1640 medium wit h 10% fetal bovine serum, penicillin (100 units/mL) and streptomycin (100 µg/mL) at 37 ° C in an atmosphere of 5% CO 2 were added.
(§5) Cells were placed in 96-multiwell microtiter plates (10^4 cells/well), for 24 h rs at 37 °C and in an atmosphere of 5% CO2 before tr eatment with the compounds to allow attachment of the cells to the wall of the plate. The tested compounds were dissolved in DMSO and diluted with phosphate buffer saline (PBS) to obtain different concentrations. Tested compounds of dif-ferent concentrations were added to each well and cells were incubated with the compounds for 48 hrs at 37 °C and in an atmosphere of 5% CO2. All tests were performed in triplicates.
(§6) The treated cells were wash ed with PBS and 100 µL of 3 -(4,5-dimeth ylthiazol-2-yl )-2,5-diphe-n yltetrazolium bromide solution (MTT) (5 mg/m L MTT st ock in PBS diluted to 1 mg/ mL with 10% RPMI-1640 medium) was added. The 9 6 -multiwell plates were read b y microarra y read er Perkinelmer vector 3V multilabel counter model 1420 (Perkinelmer, Boston, MA) for optical densit y at 490 nm (Mosmann, 1983; Denizot and Lang, 1986; Gerlier and Thomasset, 1986).
(§7) The relative percenta ge cell viabilit y was calculate d from the following equation: […]
(§8) The relation between surviving fraction and drug concentration is plotted to get the survival curve for HepG2, HCT-116 and M CF-7 cancer cell lines . […]
(§9) Denizot F, Lang R. Rapid colorimetric assa y for cell growth and survival. Modifications to the tetrazolium dye procedure giving improved sensitivity an d reliability. J Immunol Methods. 1986;89:271-7.
(§10) Gerlier D, Thomasset T. Use of MTT colorimetric assa y to measure cell activation. J Immunol Methods. 1986; […]
(§11) Mosmann T. Rapid colorimetric assa y for cellular growth and survival: Application to proliferation and cytotox- […]
(§12) Oberling C, Gu erin M. The role of viruses in the production of cancer . Ad v Cancer Res. 1954;2:353-423.
(§13) Sheeja KR, Kuttan G, Kuttan R. C ytotox ic and antitumour activit y of Berberin. Amala Res Bull. 1997;17:73-6.

[2] = In vitro cytotoxicity testing, MTT assay, W138 normal cells; format: cell-based; settings: W138 normal lung fibroblast cells, human normal lung fibroblast W138, read-out: IC50 W138 normal cell line
Method: In vitro cytotoxic activity of 5f, 5h, 5m and 5r was evaluated in accord to the reported method (Mosmann, 1983[46]; Denizot and Lang, 1986[13]; Gerlier and Thomasset, 1986[21]).
The effective antitumor compounds, 5f, 5h, 5m and 5r were further assessed for in vitro cytotoxicity toward human normal lung fibroblast (W138) cell line (Mosmann, 1983[46]; Denizot and Lang, 1986[13]; Gerlier and Thomasset, 1986[21]). IC50 values (µM) of the tested compounds and 5-FU (reference cytotoxic agent) were calculated. […]
as §3, §4, §5, §6, §7, §8
In vitro cytotoxicity testing […]
J Immunol Methods. 1986;89:271-7.
as §10, §11, §12, §13

[3] = system: kidney fibroblast (COS-7) cancer cell line; assay: In vitro antitumor screening, MTT assay, COS-7; format: cell-based; settings: Chlorocebus aethiops, 50% inhibition of cell viability, COS-7 cell line
Method: as §1, §2
In vitro antitumor screening […]
as §4, with “HCT-116” for “Compounds 5a-t were screened for in vitro antitumor activity against HepG2 (liver), HCT-116”
as §5, §6, §7, §8, §9, §10, §11, §12, §13

[4] = system: EAC cells; assay: In vivo antitumor screening against EAC cells in mice; settings: 0.5 mg/mouse; for Hb / RBCs Count / WBCs Count: blood profile of mice inoculated with EAC cells; for Viable tumor cell count/100 μL / Tumor volume / Mean survival time / % Increase in lifespan: mice inoculated with EAC cells; for Viable tumor cell count/100 μL: after five days of treatment, trypan blue; for Tumor volume: ascitic fluid; for Mean survival time: treatment for nine days; for % Increase in lifespan: %ILS = [(MST treated/MST positive control)-1] x 100
Method: In vivo antitumor assessment of 5f, 5h, 5m and 5r was performed according to the literature method (Oberling and Guerin, 1954[48]; Sheeja et al., 1997[64]; Clarkson and Burchenal, 1965[9]).
Results of in vivo antitumor screening of compounds 5f, 5h, 5m and 5r (showing the highest in vitro antitumor activity) against EAC cells in mice are listed in Tables 2-4(Tab. 2)(Tab. 3)(Tab. 4). The % increase in lifespan of EAC inoculated mice (%ILS), the decrease in viable tumor cell count and the retrieval of normal blood profile are three substantial measures used for estimation of antitumor efficacy of the selected compounds and 5-fluorouracil (5-FU) (standard agent) (Oberling and Guerin, 1954[48]; Sheeja et al., 1997[64]; Clarkson and Burchenal, 1965[9]). The mean survival time (MST) of each group was rated and %ILS of mice inoculated with EAC cells was determined adopting the equation: %ILS = [(MST of treated group/ MST of positive control group)-1] x 100, where MST = days of the mouse in a group/total no. of mice. […] Also, this compound produced considerable decrease in viable tumor cell count (Table 3(Tab. 3)). […]
In vivo antitumor screening
Swiss male albino mice (wei ghing 20-25 g) were utilized. The y were dwelled in microlon boxes at temperature 25 ± 2 °C with a regular 12 hrs light/dark cycl e, in addition, food and water intake were permitted.
EAC cells were acquir ed from the NCI, Cairo, Egypt.
Mice were divided into 7 groups (n= 6).
Group 1: Negative contr ol (no EAC cells) - recei ved normal saline.
Group 2: Positive control (EAC cells) - receiv ed normal saline.
Group 3: EAC cells - received compound 5f (0.5 mg/mouse).
Group 4: EAC cells - received compound 5h (0.5 mg/mouse).
Group 5: EAC cells - received compound 5m (0.5 mg/mouse).
Group 6: EAC cells - received compound 5r (0.5 mg/mouse).
Group 7: EAC cells - received 5-fluorouracil (0.5 mg/mouse).
2 x 10^6 cells were inoc ulated intraperitoneall y t o each mouse in all groups ex cept the neg-ative control group. The tr eatment began 24 hrs after inoculation (0.5 mg/mouse) and con-tinued for nine days (Oberlin g and Gu erin, 19 54; Sheeja et al., 1997; Clarkson and Burch enal, […]
Determination of tumor volume
The ascetic fluid was gath ered from the peritoneal cavit y of dissected mice. It was th en centrifuged for 5 min and the tumor cell volume was set.
Determination of viable tumor cell count after five days of treatment
EAC cells (100 μ L, from three mice of each group) were obtained and diluted to twent y-fold with saline. The cells were st ained with tr ypan blue, t he dead cells are stained, whereas […]
The number of viable cells was counted. […]
Clarkson BD, Burchenal JH. Preliminary screening of antineoplastic drugs. Prog Clin Cancer. 1965;1:625-9. […]
as §12, §13

SMILES | IC50 [1] [µM] | IC50 at 48 h [2] [µM] | IC50 [3] [µM] | Hb [4] [g/dL] | RBCs Count [4] | WBCs Count [4] | Viable tumor cell count/100 μL [4] | Tumor volume [4] [mL] | Mean survival time [4] [days] | % Increase in lifespan [4] [%]
O=c1oc2ccccc2cc1-c1csc(NN=Cc2cc([N+](=O)[O-])ccc2Cl)n1 [5h, 3-(2-(2-(2-Chloro-5-nitrobenzylidene)hydrazino)thiazol-4-yl)-2H-chromen-2-one] | 1.42 | 19.8 | 1.96 | 11.97 | 4.92 10^6/mm^3 | 9.25 10^3/mm^3 | 32.57x10^6 /100 μL | 3.12 | 39.3 | 171.0
O=c1[nH]cc(F)c(=O)[nH]1 [5-Fluorouracil, 5-fluorouracil, reference compound] | – | 5.73 | – | 12.96 | 5.21 10^6/mm^3 | 8.86 10^3/mm^3 | 20.17x10^6 /100 μL | 1.60 | 49.0 | 237.9
O=c1oc2ccccc2cc1-c1csc(NN=Cc2c(Cl)cccc2Cl)n1 [5f, 3-(2-(2-(2,6-Dichlorobenzylidene)hydrazino)thiazol-4-yl)-2H-chromen-2-one] | 1.9 | 36.2 | > 50 | 12.92 | 5.14 10^6/mm^3 | 8.41 10^3/mm^3 | 25.83x10^6 /100 μL | 2.62 | 41.0 | 182.7
O=c1oc2ccccc2cc1-c1csc(NN=Cc2c3ccccc3c(Cl)c3ccccc23)n1 [5r, 3-(2-(2-((10-Chloroanthracen-9-yl)-methylidene)hydrazino)thiazol-4-yl)-2H-chromen-2-one] | 1.29 | 24.3 | 1.66 | 13.10 | 5.55 10^6/mm^3 | 7.45 10^3/mm^3 | 21.94x10^6 /100 μL | 2.11 | 45.5 | 213.8
O=c1oc2ccccc2cc1-c1csc(NN=Cc2ccc[nH]2)n1 [5m, 3-(2-(2-((1H-Pyrrol-2-yl)methylidene)hydrazino)thiazol-4-yl)-2H-chromen-2-one] | 6.25 | 29.5 | 12.5 | 11.43 | 4.39 10^6/mm^3 | 9.61 10^3/mm^3 | 40.52x10^6 /100 μL | 3.85 | 37.0 | 155.2
